Source: patent US10894052B2, “Heterocyclic inhibitors of ATR kinase” (Board of Regents, The University of Texas System, priority 2018, dated 2021)

How the values were obtained:
ATR/ATRIP complex = ATR/ATRIP complex (Homo sapiens (Human), UniProt Q13535); assay: ATR/ATRIP enzymatic assay (Caliper-based); format: biochemical; conditions: ATR/ATRIP enzyme; FAM-labeled RAD17 peptide, ATP
Method: (§1) The ability of the compounds of Formula I to inhibit the catalytic activity of the ATR/ATRIP complex was measured in a Caliper-based assay, and in HT-29 cells in an Alphascreen assay, following the ATR-mediated phosphorylation of CHK1, described below.
Human full-length FLAG-TEV-ATR and His6-ATRIP were co-expressed in HEK293 cells. […] The sample was loaded into a column, and then washed with buffer A three times. Protein was subsequently eluted with 2 ml of buffer B (buffer A+200 μg/ml 3×FLAG peptide).
The ability of new chemical matter to inhibit the ATR catalytic activity in this ATR/ATRIP complex was assessed using a Caliper-based assay. A 2× enzyme solution (i.e., 4 nM enzyme) was prepared using 1× Kinase Reaction Buffer (25 mM HEPES pH 8, 0.0055% Brij-35, 10 mM MnCl2, and 1 mM DTT). […] 10 μL of the 2× enzyme solution was transferred to an assay plate containing 60 nL of test compound (from a 3× serial dilution) in 100% DMSO. Following a 30-min incubation at 28° C., 10 μL of the 2× peptide solution was then transferred to the same assay plate. The reaction incubated at 28° C. for 6 h. After adding 30 μL stop buffer (100 mM HEPES pH 7.5, 0.015% Brij-35, 0.2% Coating-3 Reagent (PerkinElmer, catalog #PN760050), and 50 mM EDTA), data were collected on a Caliper instrument. Conversion values were converted to inhibition values via the following equation: % inhibition=(max−conversion)/(max−min)*100, wherein “max” corresponds to the DMSO control, and “min” corresponds to the low control. IC50 values were calculated using the following equation in XLFit: Y=Bottom+(Top−Bottom)/1+(IC50/X)^HillSlope).

[1] = system: ATR-driven phosphorylation of Chk1 kinase at Serine 345 in HT-29 cells; assay: pCHK1 cellular assay (CHK1 p-Ser345 AlphaScreen SureFire); format: cell-based; conditions: Homo sapiens; HT-29 colorectal adenocarcinoma cells; 4-nitroquinoline N-oxide 12 μM; read-out: Cell IC50 (pCHK1)
Method: as §1
Cellular IC50 for the inhibitors of ATR described herein were measured in HT-29 colorectal adenocarcinoma cells.
The microplate was incubated overnight (approximately 20 hours) at 37° C. with 5% CO2 and ambient O2. Stock solutions of the test compounds were prepared in 100% DMSO (Sigma, Catalog #D2650) and serially diluted 1:3 using 100% DMSO. Compounds were additionally diluted 1:33 in culture medium, and 10 μL/well were transferred to the tissue culture plate. Following the compound addition, the microplate was incubated at 37° C. for 90 minutes. […] The cells were then washed with PBS and lysed using 10 μL/well […]® Kit lysis buffer diluted to 1× in water (PerkinElmer Catalog #TGRCHK1S50K), with mixing on an orbital shaker at 500 rpm for 20 min at room temperature. Lysates were frozen at −20 OC overnight.
The pCHK1 ALPHASCREEN® signal was measured using an ENVISION® plate reader (PerkinElmer). IC50 values were calculated using a four-parameter logistic curve fit using Genedata Screener software. Percent of control for each compound concentration was calculated by the following formula: 100*(Compound−Min)/(Max−Min), where “Max” is the high control, DMSO, and “Min” is the low control, 5 μM ATR inhibitor.

ATR/ATRIP complex, sequence (Q13535 whole entry): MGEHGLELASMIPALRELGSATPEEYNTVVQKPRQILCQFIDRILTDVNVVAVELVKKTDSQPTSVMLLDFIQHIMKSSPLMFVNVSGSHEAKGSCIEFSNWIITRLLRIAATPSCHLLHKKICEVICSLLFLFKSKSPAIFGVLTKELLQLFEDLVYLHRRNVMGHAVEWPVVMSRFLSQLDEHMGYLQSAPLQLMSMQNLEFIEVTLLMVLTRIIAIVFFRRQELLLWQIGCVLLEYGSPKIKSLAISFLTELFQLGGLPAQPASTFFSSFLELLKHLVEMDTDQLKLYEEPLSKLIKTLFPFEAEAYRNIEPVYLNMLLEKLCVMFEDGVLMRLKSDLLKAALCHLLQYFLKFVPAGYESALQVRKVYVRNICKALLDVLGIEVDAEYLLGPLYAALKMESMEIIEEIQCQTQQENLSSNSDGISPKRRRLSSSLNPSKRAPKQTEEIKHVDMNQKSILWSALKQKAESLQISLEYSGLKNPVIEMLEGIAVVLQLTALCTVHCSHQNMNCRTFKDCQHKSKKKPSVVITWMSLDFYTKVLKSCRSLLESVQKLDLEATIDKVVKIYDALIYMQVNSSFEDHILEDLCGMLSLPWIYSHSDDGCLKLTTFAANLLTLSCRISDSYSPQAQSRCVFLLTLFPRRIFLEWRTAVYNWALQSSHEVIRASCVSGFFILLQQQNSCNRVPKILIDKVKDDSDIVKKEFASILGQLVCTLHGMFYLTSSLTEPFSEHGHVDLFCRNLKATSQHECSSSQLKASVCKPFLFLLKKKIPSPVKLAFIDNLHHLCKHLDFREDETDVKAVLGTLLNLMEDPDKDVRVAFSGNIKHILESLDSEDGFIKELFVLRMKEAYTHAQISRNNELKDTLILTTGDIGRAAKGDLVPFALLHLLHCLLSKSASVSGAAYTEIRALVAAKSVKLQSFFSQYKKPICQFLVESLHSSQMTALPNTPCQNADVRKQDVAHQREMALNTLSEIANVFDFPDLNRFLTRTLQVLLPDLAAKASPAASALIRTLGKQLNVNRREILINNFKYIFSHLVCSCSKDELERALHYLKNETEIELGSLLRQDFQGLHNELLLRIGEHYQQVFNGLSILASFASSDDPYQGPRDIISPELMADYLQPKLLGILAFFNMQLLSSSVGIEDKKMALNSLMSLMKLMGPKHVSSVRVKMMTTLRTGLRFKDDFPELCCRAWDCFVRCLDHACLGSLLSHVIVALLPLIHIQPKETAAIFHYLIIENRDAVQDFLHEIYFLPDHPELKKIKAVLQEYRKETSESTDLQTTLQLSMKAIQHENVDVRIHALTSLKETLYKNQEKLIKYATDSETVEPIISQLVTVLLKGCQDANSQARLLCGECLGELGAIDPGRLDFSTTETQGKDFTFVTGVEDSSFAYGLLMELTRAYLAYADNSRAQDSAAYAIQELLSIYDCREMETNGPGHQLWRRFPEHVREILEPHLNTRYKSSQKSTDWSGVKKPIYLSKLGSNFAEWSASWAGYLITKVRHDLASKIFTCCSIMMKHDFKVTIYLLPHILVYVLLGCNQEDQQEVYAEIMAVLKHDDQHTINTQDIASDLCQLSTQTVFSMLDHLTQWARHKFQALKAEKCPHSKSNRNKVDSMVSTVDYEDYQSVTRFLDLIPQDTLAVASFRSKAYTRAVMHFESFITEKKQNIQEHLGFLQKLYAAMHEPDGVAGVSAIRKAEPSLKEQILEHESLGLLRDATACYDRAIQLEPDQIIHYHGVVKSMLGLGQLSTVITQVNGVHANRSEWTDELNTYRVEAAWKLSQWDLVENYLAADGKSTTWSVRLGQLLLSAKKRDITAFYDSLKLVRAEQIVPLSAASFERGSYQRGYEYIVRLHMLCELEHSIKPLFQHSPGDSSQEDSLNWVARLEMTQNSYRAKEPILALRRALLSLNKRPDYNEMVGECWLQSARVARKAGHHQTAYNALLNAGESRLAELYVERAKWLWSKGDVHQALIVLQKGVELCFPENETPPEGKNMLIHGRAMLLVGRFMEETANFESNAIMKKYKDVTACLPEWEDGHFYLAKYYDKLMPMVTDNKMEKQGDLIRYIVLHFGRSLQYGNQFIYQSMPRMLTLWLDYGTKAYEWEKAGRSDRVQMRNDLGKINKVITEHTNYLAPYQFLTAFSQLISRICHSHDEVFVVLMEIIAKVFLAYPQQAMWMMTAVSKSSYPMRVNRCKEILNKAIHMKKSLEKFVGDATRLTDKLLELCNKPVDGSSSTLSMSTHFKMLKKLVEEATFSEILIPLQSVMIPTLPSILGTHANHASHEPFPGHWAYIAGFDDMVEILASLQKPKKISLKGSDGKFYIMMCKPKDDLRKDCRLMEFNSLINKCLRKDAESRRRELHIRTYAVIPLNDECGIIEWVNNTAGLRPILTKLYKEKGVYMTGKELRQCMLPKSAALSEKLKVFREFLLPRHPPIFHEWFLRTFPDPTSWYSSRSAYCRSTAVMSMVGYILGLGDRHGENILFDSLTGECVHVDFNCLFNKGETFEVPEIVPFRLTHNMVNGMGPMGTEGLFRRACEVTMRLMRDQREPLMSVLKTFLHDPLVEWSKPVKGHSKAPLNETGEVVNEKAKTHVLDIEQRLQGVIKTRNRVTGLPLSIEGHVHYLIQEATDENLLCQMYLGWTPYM
ATR/ATRIP complex, sequence (Q8WXE1 whole entry partner): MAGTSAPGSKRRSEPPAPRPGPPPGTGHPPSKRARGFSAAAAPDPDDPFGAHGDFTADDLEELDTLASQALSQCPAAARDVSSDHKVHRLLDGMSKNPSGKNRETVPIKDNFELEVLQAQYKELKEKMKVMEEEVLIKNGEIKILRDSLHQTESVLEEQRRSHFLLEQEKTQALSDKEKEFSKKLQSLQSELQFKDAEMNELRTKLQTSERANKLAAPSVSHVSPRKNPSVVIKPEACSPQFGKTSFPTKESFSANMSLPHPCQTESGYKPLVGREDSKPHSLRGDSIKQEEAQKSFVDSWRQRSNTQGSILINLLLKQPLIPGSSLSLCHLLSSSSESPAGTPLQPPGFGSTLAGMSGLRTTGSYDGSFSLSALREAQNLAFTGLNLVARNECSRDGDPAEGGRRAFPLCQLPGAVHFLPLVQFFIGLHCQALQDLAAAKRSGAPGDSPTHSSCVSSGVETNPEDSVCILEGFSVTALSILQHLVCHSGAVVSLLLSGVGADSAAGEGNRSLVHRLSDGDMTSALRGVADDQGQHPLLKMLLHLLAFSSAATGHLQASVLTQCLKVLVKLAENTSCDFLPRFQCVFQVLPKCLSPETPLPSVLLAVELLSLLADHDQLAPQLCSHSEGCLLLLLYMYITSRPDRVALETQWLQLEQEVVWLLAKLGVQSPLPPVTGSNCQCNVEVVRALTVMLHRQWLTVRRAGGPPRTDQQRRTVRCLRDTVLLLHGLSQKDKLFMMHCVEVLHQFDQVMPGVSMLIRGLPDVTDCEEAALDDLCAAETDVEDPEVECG

IC50 (ATR/ATRIP complex)	IC50 [1]	SMILES
12 nM	638 nM	C[C@@H]1COCCN1c1cc(N=S(C)(=O)C2COC2)nc(-c2ccnc3[nH]ccc23)c1 (stereo partly drawn) [Example 17, methyl((4-((R)-3-methylmorpholino)-6-(1H-pyrrolo[2,3-b]pyridin-4-yl)pyridin-2-yl)imino)(oxetan-3-yl)-λ^6-sulfanone]
9 nM	232 nM	C[C@@H]1COCCN1c1cc(N=S(C)(C)=O)nc(-c2cncc3[nH]ccc23)c1 [Example 13, (R)-dimethyl((4-(3-methylmorpholino)-6-(1H-pyrrolo[2,3-c]pyridin-4-yl)pyridin-2-yl)imino)-λ^6-sulfanone]
8 nM	467 nM	C[C@@H]1COCCN1c1cc(N=S(C)(C)=O)nc(-c2cccc3[nH]cnc23)c1 [Example 23, (R)-((6-(1H-benzo[d]imidazol-4-yl)-4-(3-methylmorpholino)pyridin-2-yl)imino)dimethyl-λ^6-sulfanone]
1 nM	35 nM	CNc1nc2ccccc2n1-c1cc(N2CCOC[C@H]2C)cc(N=S(C)(C)=O)n1 [Example 10, (R)-Dimethyl((6-(2-(methylamino)-1H-benzo[d]imidazol-1-yl)-4-(3-methylmorpholino)pyridin-2-yl)imino)-λ^6-sulfanone]
986 nM	10000 nM	Cc1nc2cccnc2n1-c1cc(N2CCOC[C@H]2C)cc(N=S(C)(C)=O)n1 [Example 4, (R)-Dimethyl((6-(2-methyl-3H-imidazo[4,5-b]pyridin-3-yl)-4-(3-methylmorpholino)pyridin-2-yl)imino)-λ^6-sulfanone]
24 nM	470 nM	C[C@@H]1COCCN1c1cc(N=S(C)(=O)C2COC2)nc(-c2cncc3[nH]ccc23)c1 (stereo partly drawn) [Example 24, methyl((4-((R)-3-methylmorpholino)-6-(1H-pyrrolo[2,3-c]pyridin-4-yl)pyridin-2-yl)imino)(oxetan-3-yl)-λ^6-sulfanone]
3440 nM	10000 nM	C[C@@H]1COCCN1c1cc(N=S(C)(C)=O)nc(-c2cnn(C)c2)c1 [Example 34, (R)-dimethyl((6-(1-methyl-1H-pyrazol-4-yl)-4-(3-methylmorpholino)pyridin-2-yl)imino)-λ^6-sulfanone]
